This test deals with Nucleoprotein (Influenza A virus (strain A/Wilson-Smith/1933 H1N1), UniProt P15682, S377G). As to the kind of experiment: Binding affinity to Influenza A virus (A/WSN/1933(H1N1)) nucleoprotein S377G mutant transfected in 293T cells assessed as inhibition of RNA dependent RNA polymerase activity. In kind it is cell-based, Influenza A virus (A/Weiss/1943(H1N1)).

pIC50: −log10 of the molar value.

In general, pIC50 refers to −log10 of the IC50, conventionally taken in molar units.

Regarding `Cc1onc(-c2ccccc2Cl)c1C(=O)N1CCN(c2ccc([N+](=O)[O-])cc2)CC1`, the pIC50 was 6.52.
For the molecule `Cn1c(=O)c2c(-c3ccccc3)n3c(c2n(C)c1=O)C(c1ccccc1F)OCC3(C)C` (configuration not stated), the pIC50 was 5.77.

The values above are taken from ChEMBL document CHEMBL3616452 (Eur J Med Chem, 2015).
